Measurements published in patent US6664400B2 (dated 2003).

- melting point: 168 to 170 °C
Compound: O=C1[C@H]2C[C@H](F)CN2C(=O)N1c1cc(NS(=O)(=O)CCl)c(Cl)cc1F
